Results: ChEMBL document CHEMBL4765340, “Novel potent antiplatelet thrombotic agent derived from biguanide for ischemic stroke” (Eur J Med Chem, 2020)
Activity calls are given as the source filed them. The calls are words filed in the database; no cut-off is given here.

Assays:
Mus musculus [1] = assay: Antithrombotic activity in calcein-labelled platelet-mediated ferric chloride-induced arterial injury thrombosis C57BL/6J mouse model assessed as thrombus weight at 300 mg/kg, po administrated twice a day measured upto 7 days (reference value: 3.3 +/- 0.3 mg); type: functional; conditions: time day <=7
[2] = Toxicity against diabetic C57BL/6J mouse assessed hypoglycemic activity at 200 mg/kg twice a day measured after 60 days relative to parent compound; type: organism-based; conditions: in vivo, 1440 h, time 60 day
Platelet [3] = assay: Inhibition of thrombin-stimulated human platelet aggregation at 1 mM measured after 3 hrs by scanning electron microscopy (Rvb= 87.2 +/- 4.0%); type: functional, tissue-based
[4] = Toxicity against C57BL/6J mouse assessed as effect on blood lactic acid at 200 mg/kg twice a day measured after 60 days; type: organism-based; conditions: in vivo, 1440 h, time 60 day
[5] = Toxicity in calcein-labelled platelet-mediated ferric chloride-induced arterial injury thrombosis po dosed C57BL/6J mouse model assessed as change in coagulation factor VII to XII treated twice a day measured upto 7 days; type: organism-based; conditions: in vivo, 168 h, time <=7 day
[6] = Toxicity in C57BL/6J mouse assessed as change in blood urea nitrogen level at 200 mg/kg twice daily for 60 days relative to control; type: organism-based; conditions: in vivo, 1440 h, time 60 day
Platelet [7] = assay: Cytotoxicity against human platelet assessed as extracellular LDH levels changes at 1 mM incubated for 3 hrs; type: cell-based; conditions: 1000 µM
[8] = Toxicity in C57BL/6J mouse assessed as change in potassium level at 200 mg/kg twice daily for 60 days relative to control; type: organism-based; conditions: in vivo, 1440 h, time 60 day
[9] = AUC (0 to infinity) in Sprague-Dawley rat at 200 mg/kg, po measured by HPLC-MS/MS analysis; type: ADME, organism-based; design: time infinity, route oral, dose 200 mg/kg; conditions: in vivo
[10] = Toxicity against C57BL/6J mouse assessed as heart morphology at 200 mg/kg twice a day measured after 60 days; type: organism-based; conditions: in vivo, 1440 h, time 60 day
[11] = Toxicity against C57BL/6J mouse assessed as body weight at 200 mg/kg twice a day measured after 60 days; type: organism-based; conditions: in vivo, 1440 h, time 60 day
[12] = Toxicity in C57BL/6J mouse assessed as change in thrombo-cytocrit at 200 mg/kg twice daily for 60 days relative to control; type: organism-based; conditions: in vivo, 1440 h, time 60 day
[13] = Toxicity against C57BL/6J mouse assessed as kidney morphology at 200 mg/kg twice a day measured after 60 days; type: organism-based; conditions: in vivo, 1440 h, time 60 day
[14] = Toxicity in calcein-labelled platelet-mediated ferric chloride-induced arterial injury thrombosis po dosed C57BL/6J mouse model assessed as change in fibrinogen treated twice a day measured upto 7 days; type: organism-based; conditions: in vivo, 168 h, time <=7 day
[15] = Suppression of P-selectin expression in thrombin-stimulated human platelets by measuring CD62P positive platelets at 0.50 mM after 3 hrs by flow cytometry analysis (reference value: 78.2%); type: functional; conditions: Platelet, at 0.5 mM
Mus musculus [16] = assay: Antithrombotic activity in transient focal cerebral ischemic mouse model occlusion induced 60 mins of the right middle cerebral artery followed by reperfussion 23 hrs assessed as reduction of brain infract volume at 200 mg/kg, po twice daily for 7 days by TTC staining based […] analysis (reference value: 46 +/- 5%); type: functional; design: scale not given: the % may be the effect or the level left; conditions: time 7 day
Mus musculus [17] = assay: Antithrombotic activity in calcein-labelled platelet-mediated ferric chloride-induced arterial injury thrombosis C57BL/6J mouse model assessed as thrombus length at 300 mg/kg, po administrated twice a day measured upto 7 days (reference value: 4.4 +/- 0.4 mm); type: functional; conditions: time day <=7
Mus musculus [18] = assay: Antithrombotic activity in calcein-labelled platelet-mediated ferric chloride-induced arterial injury thrombosis C57BL/6J mouse model assessed as thrombus weight at 200 mg/kg, po administrated twice a day measured upto 7 days (reference value: 3.3 +/- 0.3 mg); type: functional; conditions: time day <=7
[19] = Inhibition of thrombin-induced platelet aggregation in mouse platelet isolated from C57BL/6J mouse treated at 200 mg/kg, ig twice a day for 7 days by lumi-aggregometer; type: functional; conditions: po, 168 h, time 7 day
[20] = Toxicity in C57BL/6J mouse assessed as change in mean platelet volume at 200 mg/kg twice daily for 60 days relative to control; type: organism-based; conditions: in vivo, 1440 h, time 60 day
Platelet [21] = assay: Cytotoxicity against human platelet assessed as extracellular LDH levels changes at 1 mM incubated for 1 hrs; type: cell-based; conditions: 1000 µM
[22] = Toxicity against C57BL/6J mouse assessed as liver morphology at 200 mg/kg twice a day measured after 60 days; type: organism-based; conditions: in vivo, 1440 h, time 60 day
[23] = Suppression of P-selectin expression in thrombin-stimulated human platelets by measuring CD62P positive platelets at 1 mM after 3 hrs by flow cytometry analysis (reference value: 78.2%); type: functional; conditions: Platelet
Platelet [24] = assay: Inhibition of thrombin-stimulated human platelet aggregation measured after 3 hrs by scanning electron microscopy with 0.01 to 1 U/ml varying concentration of thrombin by lumi-aggregometer; type: functional, tissue-based
[25] = Suppression of P-selectin expression in thrombin-stimulated human platelets by measuring CD62P positive platelets at 0.10 mM after 3 hrs by flow cytometry analysis (reference value: 78.2%); type: functional; conditions: Platelet, at 0.1 mM
[26] = Toxicity against C57BL/6J mouse assessed as pancreas morphology at 200 mg/kg twice a day measured after 60 days; type: organism-based; conditions: in vivo, 1440 h, time 60 day
[27] = Inhibition of thrombin-stimulated human platelet aggregation measured after 3 hrs by scanning electron microscopy; type: functional, tissue-based
[28] = Toxicity in C57BL/6J mouse assessed as change in platelet count at 200 mg/kg twice daily for 60 days relative to control; type: organism-based; conditions: in vivo, 1440 h, time 60 day
[29] = Inhibition of thrombin-stimulated human platelet aggregation by measuring aggregation at 0.50 mM measured after 4 hrs by scanning electron microscopy; type: functional; design: scale not given: the % may be the effect or the level left; conditions: dose 0.5 mM
[30] = Cmax in Sprague-Dawley rat at 200 mg/kg, po compound dissolved in DMSO measured after 2 hr by HPLC-MS/MS analysis; type: ADME, organism-based; design: route oral, time 2 hrs, dose 200 mg/kg; conditions: in vivo
[31] = Toxicity in calcein-labelled platelet-mediated ferric chloride-induced arterial injury thrombosis po dosed C57BL/6J mouse model assessed as change in prothrombin time treated twice a day measured upto 7 days; type: organism-based; conditions: in vivo, 168 h, time <=7 day
Mus musculus [32] = assay: Antithrombotic activity in collagen-epinephrine induced pulmonary thromboembolism mouse model assessed as protection rate at 200 mg/kg, ig twice a day for 7 days followed by administered collagen-epinephrine relative to control; type: functional; conditions: time 7 day
[33] = Inhibition of thrombin-stimulated human platelet aggregation by measuring aggregation at 0.50 mM measured after 2 hrs by scanning electron microscopy; type: functional; design: scale not given: the % may be the effect or the level left; conditions: dose 0.5 mM
[34] = Toxicity in calcein-labelled platelet-mediated ferric chloride-induced arterial injury thrombosis po dosed C57BL/6J mouse model assessed as change in coagulation factor II treated twice a day measured upto 7 days; type: organism-based; conditions: in vivo, 50 mg/kg, 168 h, time <=7 day
[35] = Toxicity in calcein-labelled platelet-mediated ferric chloride-induced arterial injury thrombosis po dosed C57BL/6J mouse model assessed as change in coagulation factor V treated twice a day measured upto 7 days; type: organism-based; conditions: in vivo, 168 h, time <=7 day
[36] = Suppression of glycoprotein IIb/IIIa activation in thrombin-stimulated human platelets by measuring activated GPIIb/IIIa at 0.01 mM measured after 3 hrs by PAC-1-FITC dye based flow cytometry (reference value: 90.1%); type: functional; conditions: Platelet
[37] = Inhibition of thrombin-stimulated human platelet aggregation by measuring aggregation at 0.50 mM measured after 3 hrs by scanning electron microscopy (Rvb= 87.2 +/- 4.0%); type: functional; design: scale not given: the % may be the effect or the level left; conditions: dose 0.5 mM
[38] = Toxicity in C57BL/6J mouse assessed as change in immature platelet fraction at 200 mg/kg twice daily for 60 days relative to control; type: organism-based; conditions: in vivo, 1440 h, time 60 day

Structure (SMILES): CN(C)C(=N)NC(=N)NS(=O)(=O)C(F)(F)F
- Activity (Mus musculus [1]): 0.4 mg
- Activity [2]: Non-Toxic
- inhibition (Platelet [3]): inactive
- Activity [4]: Non-Toxic
- Activity [5]: Non-Toxic
- Activity [6]: Non-Toxic
- Activity (Platelet [7]): Non-Toxic
- Activity [8]: Non-Toxic
- AUC(0-inf) [9]: 201 µg·h/mL
- Activity [10]: Non-Toxic
- Activity [11]: Non-Toxic
- Activity [12]: Non-Toxic
- Activity [13]: Non-Toxic
- Activity [14]: Non-Toxic
- level, % of control at 500 µM [15]: 45.2%
- Activity (Mus musculus [16]): 5%
- Activity (Mus musculus [17]): 1.4 mm
- Activity (Mus musculus [18]): 0.4 mg
- inhibition in vivo at 200 mg/kg [19]: 71.5%
- Activity [20]: Non-Toxic
- Activity (Platelet [21]): Non-Toxic
- Activity [22]: Non-Toxic
- level, % of control at 1000 µM [23]: 46.6%
- inhibition (Platelet [24]): Active
- level, % of control at 100 µM [25]: 54.7%
- Activity [26]: Non-Toxic
- IC50 [27]: 150 µM
- Activity [28]: Non-Toxic
- Activity [29]: 19.5%
- Cmax [30]: 24300 ng/mL
- Activity [31]: Non-Toxic
- Activity (Mus musculus [32]): 70%
- Activity [33]: 35%
- Activity [34]: Non-Toxic
- Activity [35]: Non-Toxic
- level, % of control at 10 µM [36]: 84.2%
- Activity [37]: 21%
- Activity [38]: Non-Toxic
